Laboratory results: patent US4895937A, “5-ioso-2-pyrimidinone nucleoside” (The Research Foundation of State University of New York, priority 1988, dated 1990)
“And” between values parts separate entries of the source, which are not always exact repeats. Identical values can stand only once. “Also recorded” adds a separate entry of the source. Like-named read-outs stand apart in the source and are kept apart here.

What was measured:
HSV-2 (CEU-G) = test: Antiherpes activity, HSV-2 (CEU-G) (Example 10); type: cell-based; details: Human alphaherpesvirus 2, read-out: plaque-forming units as % of control
Protocol: (§1) IPdR and 5-bromo-2-pyrimidinone-2-deoxyribonucleoside (BrPdR) were tested for antiherpes activity according to procedures described by Cheng, Y.-C., et al. Antimicrob. Agents Chemother (1976) 10, 119.

[1] = system: HSV-1 and HSV-2 strains (herpes virus group); test: Antiherpes activity, overall statement; type: cell-based
Protocol: as §1

PFA-resistant strains = test: Antiherpes activity, PFA-resistant strain (Example 10); type: cell-based
Protocol: as §1

HSV-2 (strain 333) [2] = test: Antiviral activity, HSV-2 plaque reduction (Example 8 Part A); type: cell-based
Protocol: The effects of 1-(2-Deoxy-β-D-ribofuranosyl)-5-iodo-2-pyrimidinone (IPdR) of Example 3 were compared with 1-(2-Deoxy-β-D-ribofuranosyl)-5-fluoro-2-pyrimidinone (FPdR) on HSV-2 (strain 333) in […]. Twenty four well plates (sterile) were plated with 10^6 Vero cells/well the day before infecting. 250 PFU of HSV-2 were used in each well. The test compounds, IPdR and FPdR, were added at zero times of post infection and the cultures incubated at 37° C. for 48 hours. At the end of the incubation period the media was removed from Vero cells. Plates were strained with 0.8% crystal violet in 50% ethanol for 15 minutes. The plaque was counted.

HSV-1 (KOS) = test: Antiherpes activity, HSV-1 (KOS) (Example 10); type: cell-based; details: Human alphaherpesvirus 1; 100 μM; read-out: plaque-forming units as % of control
Protocol: as §1

[3] = system: acyclovir (ACG) and BVdU resistant strains of HSV-1; test: Antiherpes activity against acyclovir (ACG) and BVdU resistant strains of HSV-1, overall statement; type: cell-based
Protocol: as §1

[4] = system: BVdU resistant strain of HSV-1; test: Antiherpes activity, BVdU resistant strain (Example 10); type: cell-based; details: Human alphaherpesvirus 1, read-out: plaque-forming units as % of control
Protocol: as §1

HSV-2 (333 strain) = test: In vivo test of IPdR in mice implanted with HSV-2 (333 strain), survival (Example 4); design: species or system Swiss Webster Balb/C mice; details: 100 mg/kg twice daily for 2.5 days; for DAYS--SURVIVAL: deaths: 5 mice; for long term survivors (>30 days): out of 5 mice
Protocol: The substituted pyrimidinone of Example 3, 1-(2-deoxy)-β-D-ribofuranosyl)-5-iodo-2-pyrimidinone (IPdR) was tested in vivo. Three groups of five Swiss Webster Balb/C mice weighing from 19 to 23 grams were implanted with HSV-2 (333 strain) with a virus load of 5×10^5 plaque forming units.
Drug administration began one day following virus implant. The IPdR was administered subcutaneously to a first group of mice and intraperitoneally to a second group of mice. The third group of mice which performed as controls were not given any IPdR. The dosage of IPdR was at the rate of 100 mg/kg twice daily for 2.5 days for a total of 5 doses.

[5] = system: virus-specific thymadine kinase; test: Binding to the virus-specific thymidine kinase (Example 10); details: compared with BrPdR
[6] = system: human nasopharyngeal carcinoma KB cells; test: Cytotoxicity / cell proliferation in KB cells (Example 8 Part B); type: cell-based
Protocol: (§2) To compare the toxicity of FPdR and IPdR human nasopharyngeal carcinoma KB cells obtained from the American Type Culture Collection were maintained as a monolayer in RPMI 1640 supplemented with 5% fetal bovine serum, 10 mM HEPES buffer (pH 7.4) and karamycin (100 μg/ml). Cells were maintained at 37° C. in a humidified atmosphere of 5% CO2 in air. Cell numbers were determined with an electronic particle counter (Particle Data, Inc., Elmhurst, Ill.).
(§3) For determination of drug effect on cell proliferation, cells were harvested from rapidly proliferting cultures by treatment with pancreation. Cell number was determined and plated in 24 well (6 mm well diameter) plates at a concentratin of 5×10^3 cells/ml. Drug exposures were initiated by a complete change of medium after overnight incubation. Following a 72 hour drug exposure […]. of thiazolyl blue was added and incubated for a further 4 hour period. The media from the plates was aspirated completely and […] DMSO was added to each well. The plates were placed on a shaker for 5 minutes and the blue solution transferred to 96 well plates and read at 540 nm with a scanning multiwell spectrophotometer (Biotek Instruments, Inc. Burlington, Vt.).

[7] = as above; type: cell-based, human; details: human, kb cells, 72 hour exposure
Protocol: as §2, §3

HSV-2 (Strain 333) [8] = test: Antiviral activity in HSV-2 infected mice by various routes (Example 9); type: in vivo, Swiss-Webster female mice; details: for % ILS: excluding 45 day survivors
Protocol: The drugs were administered once a day for five days or twice daily (12 hour intervals) for 2.5 days beginning 24 hours postinfection. Mean body weight determinations of drug treated and control animals were made during the treatment period as an indicator of sublethal toxicity. Deaths were recorded through day 45.

HSV-2 (333) = test: Antiherpes activity, HSV-2 (333) (Example 10); type: cell-based; details: Human alphaherpesvirus 2; 100 μM; read-out: plaque-forming units as % of control
Protocol: as §1

HSV-1 (CLl0l) = test: Antiherpes activity, HSV-1 (CLl0l) (Example 10); type: cell-based; details: Human alphaherpesvirus 1; 100 μM; read-out: plaque-forming units as % of control
Protocol: as §1

[9] = system: ACG (Tr7), acyclovir resistant strain of HSV1; test: Antiherpes activity, acyclovir resistant strain of HSV1 (Tr7) (Example 10); type: cell-based, HSV-1; details: Human alphaherpesvirus 1, read-out: plaque-forming units as % of control
Protocol: as §1

[10] = 100 mg/kg oral, 2 × 21/2, 72 hours after implant
[11] = 100 mg/kg oral, 2 × 21/2, innoculation dose 1 × 10^6 PFU

**Q.** What does the source list for `O=c1ncc(I)cn1[C@H]1C[C@H](O)[C@@H](CO)O1` [IPdR, 1-(2-Deoxy-β-D-Ribofuranosyl)-5-iodo-2-pyrimidinone]?
**A.** activity at 100 µM (HSV-2 (CEU-G)): 9.3%; antiherpes / anti-viral activity (words) [1]: significant antiherpes activities; also recorded: showing the higher activity; antiherpes / anti-viral activity (words) ([1]; listed as 1-(2-Deoxy-β-D-ribofuranosyl)-5-(iodo)-2-pyrimidinone): high level of anti-viral activity; activity against PFA-resistant strains (PFA-resistant strains): retained full activity; activity at 100 µM (PFA-resistant strains; 100 μM, read-out: plaque-forming units as % of control): 0.1%; antiviral activity, comparison of IPdR and FPdR (HSV-2 (strain 333) [2]): comparable in antiviral activity; inhibition at 100 µM (HSV-2 (strain 333) [2]; Human alphaherpesvirus 2, Vero, 100 μM, 48 hours): 51.1%; activity at 100 µM (HSV-1 (KOS)): 0.27%; activity against acyclovir (ACG) and BVdU resistant strains [3]: somewhat reduced but still significant activity; activity at 100 µM [4]: 14%; DAYS--SURVIVAL: deaths (HSV-2 (333 strain); intraperitoneal): 1 died on day 17; long term survivors (>30 days) (HSV-2 (333 strain); intraperitoneal): 4; DAYS--SURVIVAL: deaths (HSV-2 (333 strain); subcutaneous, 100 mg/kg): 1 died on day 11 and 2 died on day 13; long term survivors (>30 days) (HSV-2 (333 strain); subcutaneous): 2; DAYS--SURVIVAL: days average (HSV-2 (333 strain); subcutaneous, control 9.4 days average): 12 days; binding to the virus-specific thymadine kinase [5]: stronger binding to the virus-specific thymadine kinase; toxicity against the host cells [6]: low level of toxicity for the host cell; activity at 72 h, 100 µM ([7]; 100 μm, read-out: % Growth): 75%; activity at 72 h, 200 µM ([7]; 200 μm, read-out: % Growth): 80%; IC50 at 72 h ([7]; cytotoxicity, read-out: ID50): > 200 µM; Survivors/Total (HSV-2 (Strain 333) [8]; 10 mg/kg IP, 2 × 21/2): 0/5; percent survival (HSV-2 (Strain 333) [8]; 10 mg/kg IP, 2 × 21/2): 0%; Mean Survival Time (days), of the mice that died (HSV-2 (Strain 333) [8]; 10 mg/kg IP, 2 × 21/2, control 9.3 ± 1.1): 12.8 ± 3.6 days; % ILS (HSV-2 (Strain 333) [8]; 10 mg/kg IP, 2 × 21/2): 133%; Survivors/Total (HSV-2 (Strain 333) [8]; 10 mg/kg oral, 2 × 21/2): 0/5; percent survival (HSV-2 (Strain 333) [8]; 10 mg/kg oral, 2 × 21/2): 0%; Mean Survival Time (days), of the mice that died (HSV-2 (Strain 333) [8]; 10 mg/kg oral, 2 × 21/2, control 10.6 ± 2.1): 12.8 ± 3.6 days; % ILS (HSV-2 (Strain 333) [8]; 10 mg/kg oral, 2 × 21/2): 123%; Survivors/Total (HSV-2 (Strain 333) [8]; 40 mg/kg IP, 2 × 21/2): 2/5; percent survival (HSV-2 (Strain 333) [8]; 40 mg/kg IP, 2 × 21/2): 40%; Mean Survival Time (days), of the mice that died (HSV-2 (Strain 333) [8]; 40 mg/kg IP, 2 × 21/2, control 9.3 ± 1.1): 10.0 ± 1.0 days; % ILS (HSV-2 (Strain 333) [8]; 40 mg/kg IP, 2 × 21/2): 108%; Survivors/Total (HSV-2 (Strain 333) [8]; 40 mg/kg oral, 2 × 21/2): 2/5; percent survival (HSV-2 (Strain 333) [8]; 40 mg/kg oral, 2 × 21/2): 40%; Mean Survival Time (HSV-2 (Strain 333) [8]; 40 mg/kg oral, 2 × 21/2, control 10.6 ± 2.1): 10.0 ± 1.0 days; % ILS (HSV-2 (Strain 333) [8]; 40 mg/kg oral, 2 × 21/2): 94%; Survivors/Total (HSV-2 (Strain 333) [8]; 100 mg/kg IP, 1 × 5): 7/10; percent survival (HSV-2 (Strain 333) [8]; 100 mg/kg IP, 1 × 5): 70%; Mean Survival Time (days), of the mice that died (HSV-2 (Strain 333) [8]; 100 mg/kg IP, 1 × 5, control 9.6 ± 1.1): 12.0 ± 4.4 days; % ILS (HSV-2 (Strain 333) [8]; 100 mg/kg IP, 1 × 5): 129%; Survivors/Total (HSV-2 (Strain 333) [8]; 100 mg/kg IP, 2 × 21/2): 6/10; percent survival (HSV-2 (Strain 333) [8]; 100 mg/kg IP, 2 × 21/2): 60%; Mean Survival Time (days), of the mice that died (HSV-2 (Strain 333) [8]; 100 mg/kg IP, 2 × 21/2, control 9.3 ± 1.1): 12.5 ± 1.3 days; % ILS (HSV-2 (Strain 333) [8]; 100 mg/kg IP, 2 × 21/2): 135%; Survivors/Total (HSV-2 (Strain 333) [8]; 100 mg/kg SC, 1 × 5): 2/5; percent survival (HSV-2 (Strain 333) [8]; 100 mg/kg SC, 1 × 5): 40%; Mean Survival Time (days), of the mice that died (HSV-2 (Strain 333) [8]; 100 mg/kg SC, 1 × 5, control 9.4 ± 1.1): 12.3 ± 1.2 days; % ILS (HSV-2 (Strain 333) [8]; 100 mg/kg SC, 1 × 5): 131%; Survivors/Total (HSV-2 (Strain 333) [8]; 100 mg/kg oral, 2 × 21/2): 20/20; percent survival (HSV-2 (Strain 333) [8]; 100 mg/kg oral, 2 × 21/2): 100%; Survivors/Total (HSV-2 (Strain 333) [8]; [10]): 5/5; percent survival (HSV-2 (Strain 333) [8]; [10]): 100%; Mean Survival Time (HSV-2 (Strain 333) [8]; 100 mg/kg oral, 2 × 21/2, control 9.8 ± 1.3): > 45 days; Mean Survival Time (HSV-2 (Strain 333) [8]; 100 mg/kg oral, 2 × 21/2, control 10.6 ± 2.1): > 45 days; Survivors/Total (HSV-2 (Strain 333) [8]; [11]): 4/5; percent survival (HSV-2 (Strain 333) [8]; [11]): 80%; Mean Survival Time (days), of the mice that died (HSV-2 (Strain 333) [8]; 100 mg/kg oral, 2 × 21/2, innoculation dose 1 × 10^6 PFU, control 10.0 ± 1.2): 14.0 days; % ILS (HSV-2 (Strain 333) [8]; [11]): 140%; toxicity to the host (HSV-2 (Strain 333) [8]; oral, intraperitoneal or subcutaneous): without significant toxicity to the host; activity against HSV-2 in vivo / life span of the host (HSV-2 (Strain 333) [8]; summary of Table 5): active against HSV-2 in vivo; also recorded: can significantly increase; activity at 100 µM (HSV-2 (333)): 2.8%; activity at 100 µM (HSV-1 (CLl0l)): 1.6%; activity at 100 µM [9]: 2.6%
